According to ChEMBL document CHEMBL6127119 (J Med Chem, 2024):
Converted amounts (≈) assume the structure as drawn.

Key:
Enterococcus faecium [1] = assay: Potency index, ratio of Norvancomycin MIC to test compound MIC for vancomycin-resistant Enterococcus faecium incubated for 16 to 24 hrs by CLSI based broth microdilution method; assay type: functional; details: time 16-24 hrs
Klebsiella pneumoniae = assay: Antibacterial activity against Klebsiella pneumoniae clinical isolate incubated for 16 to 24 hrs by CLSI based broth microdilution method; assay type: functional; details: time 16-24 hrs
Escherichia coli [2] = assay: Potency index, ratio of Norvancomycin MIC to test compound MIC for Escherichia coli […] incubated for 16 to 24 hrs by CLSI based broth microdilution method; assay type: functional; details: time 16-24 hrs
Acinetobacter baumannii [3] = assay: Potency index, ratio of Vancomycin MIC to test compound MIC for Carbapenem-resistant Acinetobacter baumannii clinical isolate incubated for 16 to 24 hrs by CLSI based broth microdilution method; assay type: functional; details: time 16-24 hrs
Pseudomonas aeruginosa = assay: Antibacterial activity against Pseudomonas aeruginosa PAO1 incubated for 16 to 24 hrs by CLSI based broth microdilution method; assay type: functional; details: time 16-24 hrs
Staphylococcus aureus [4] = assay: Antibacterial activity against vancomycin-intermediate Staphylococcus aureus incubated for 16 to 24 hrs by CLSI based broth microdilution method; assay type: functional; details: time 16-24 hrs
Enterococcus faecium [5] = assay: Antibacterial activity against vancomycin-resistant Enterococcus faecium harboring VanA phenotype incubated for 16 to 24 hrs by CLSI based broth microdilution method; assay type: functional; details: time 16-24 hrs
Acinetobacter baumannii [6] = assay: Antibacterial activity against Carbapenem-resistant Acinetobacter baumannii clinical isolate incubated for 16 to 24 hrs by CLSI based broth microdilution method; assay type: functional; details: time 16-24 hrs
Enterococcus faecium [7] = assay: Potency index, ratio of Vancomycin MIC to test compound MIC for vancomycin-resistant Enterococcus faecium incubated for 16 to 24 hrs by CLSI based broth microdilution method; assay type: functional; details: time 16-24 hrs
Escherichia coli [8] = assay: Potency index, ratio of Vancomycin MIC to test compound MIC for Escherichia coli […] incubated for 16 to 24 hrs by CLSI based broth microdilution method; assay type: functional; details: time 16-24 hrs
Escherichia coli [9] = assay: Antibacterial activity against Escherichia coli AB1157 incubated for 16 to 24 hrs by CLSI based broth microdilution method; assay type: functional; details: time 16-24 hrs
Enterococcus faecium [10] = assay: Antibacterial activity against vancomycin-resistant Enterococcus faecium harboring VanM phenotype incubated for 16 to 24 hrs by CLSI based broth microdilution method; assay type: functional; details: time 16-24 hrs
Staphylococcus aureus [11] = assay: Potency index, ratio of Vancomycin MIC to test compound MIC for vancomycin-intermediate Staphylococcus aureus incubated for 16 to 24 hrs by CLSI based broth microdilution method; assay type: functional; details: time 16-24 hrs
Staphylococcus aureus [12] = assay: Antibacterial activity against methicillin-susceptible Staphylococcus aureus incubated for 16 to 24 hrs by CLSI based broth microdilution method; assay type: functional; details: time 16-24 hrs
Acinetobacter baumannii [13] = assay: Potency index, ratio of Norvancomycin MIC to test compound MIC for Carbapenem-resistant Acinetobacter baumannii clinical isolate incubated for 16 to 24 hrs by CLSI based broth microdilution method; assay type: functional; details: time 16-24 hrs
Enterococcus faecium [14] = assay: Antibacterial activity against vancomycin-resistant Enterococcus faecium harboring VanB phenotype incubated for 16 to 24 hrs by CLSI based broth microdilution method; assay type: functional; details: time 16-24 hrs
Staphylococcus aureus [15] = assay: Potency index, ratio of Norvancomycin MIC to test compound MIC for vancomycin-intermediate Staphylococcus aureus incubated for 16 to 24 hrs by CLSI based broth microdilution method; assay type: functional; details: time 16-24 hrs
HEK-293T [16] = assay: Cytotoxicity against HEK293T cells at 100 ug/ml incubated for 72 hrs by MTT assay; assay type: toxicity, cell-based; details: human, dose 100 µg/ml
HEK-293T [17] = assay: Cytotoxicity against HEK293T cells upto […] incubated for 72 hrs by MTT assay; assay type: toxicity, cell-based; details: human

Row | SMILES | Ratio (Enterococcus faecium [1]) | MIC (Klebsiella pneumoniae) [µg/mL] | Ratio (Escherichia coli [2]) | Ratio (Acinetobacter baumannii [3]) | MIC (Pseudomonas aeruginosa) [µg/mL] | MIC (Staphylococcus aureus [4]) [µg/mL] | MIC (Enterococcus faecium [5]) [µg/mL] | MIC (Acinetobacter baumannii [6]) [µg/mL] | Ratio (Enterococcus faecium [7]) | Ratio (Escherichia coli [8]) | MIC (Escherichia coli [9]) [µg/mL] | MIC (Enterococcus faecium [10]) [µg/mL] | Ratio (Staphylococcus aureus [11]) | MIC (Staphylococcus aureus [12]) [µg/mL] | Ratio (Acinetobacter baumannii [13]) | MIC (Enterococcus faecium [14]) [µg/mL] | Ratio (Staphylococcus aureus [15]) | Activity (HEK-293T [16]) | Activity (HEK-293T [17])
1 | CC(C)C[C@@H](N)C(=O)N[C@H]1C(=O)N[C@@H](CC(N)=O)C(=O)N[C@H]2C(=O)N[C@H]3C(=O)N[C@H](C(=O)N[C@H](C(=O)NCc4ccc(-c5ccccc5CNC(=N)N)cc4)c4cc(O)cc(O)c4-c4cc3ccc4O)[C@H](O)c3ccc(c(Cl)c3)Oc3cc2cc(c3O[C@@H]2O[C@H](CO)[C@@H](O)[C@H](O)[C@H]2O[C@H]2C[C@](C)(N)[C@H](O)[C@H](C)O2)Oc2ccc(cc2Cl)[C@H]1O | 2 | > 128 | 2 | 2 | 32 (≈ 19.1 µM) | 0.5 (≈ 0.299 µM) | 4 (≈ 2.39 µM) | 16 (≈ 9.57 µM) | 2 | 2 | 8 (≈ 4.79 µM) | 2 (≈ 1.2 µM) | 2 | ≤ 0.063 | 2 | 2 (≈ 1.2 µM) | 2 | – | –
2 | CN[C@H](CC(C)C)C(=O)N[C@H]1C(=O)N[C@@H](CC(N)=O)C(=O)N[C@H]2C(=O)N[C@H]3C(=O)N[C@H](C(=O)N[C@H](C(=O)NCc4ccc(-c5ccc(CNC(=N)N)cc5)cc4)c4cc(O)cc(O)c4-c4cc3ccc4O)[C@H](O)c3ccc(c(Cl)c3)Oc3cc2cc(c3O[C@@H]2O[C@H](CO)[C@@H](O)[C@H](O)[C@H]2O[C@H]2C[C@](C)(N)[C@H](O)[C@H](C)O2)Oc2ccc(cc2Cl)[C@H]1O | 2 | > 128 | 2 | 2 | – | 0.5 (≈ 0.297 µM) | 2 (≈ 1.19 µM) | 32 (≈ 19 µM) | 2 | 2 | 8 (≈ 4.75 µM) | 2 (≈ 1.19 µM) | 2 | 0.125 (≈ 0.0742 µM) | 2 | 1 (≈ 0.593 µM) | 2 | – | –
3 | CN[C@H](CC(C)C)C(=O)N[C@H]1C(=O)N[C@@H](CC(N)=O)C(=O)N[C@H]2C(=O)N[C@H]3C(=O)N[C@H](C(=O)N[C@H](C(=O)NCc4ccc(-c5ccc(CCNC(=N)N)cc5)cc4)c4cc(O)cc(O)c4-c4cc3ccc4O)[C@H](O)c3ccc(c(Cl)c3)Oc3cc2cc(c3O[C@@H]2O[C@H](CO)[C@@H](O)[C@H](O)[C@H]2O[C@H]2C[C@](C)(N)[C@H](O)[C@H](C)O2)Oc2ccc(cc2Cl)[C@H]1O | 2 | > 128 | 2 | 2 | – | 0.5 (≈ 0.294 µM) | 2 (≈ 1.18 µM) | 16 (≈ 9.41 µM) | 2 | 2 | 8 (≈ 4.71 µM) | 2 (≈ 1.18 µM) | 2 | 0.25 (≈ 0.147 µM) | 2 | 1 (≈ 0.588 µM) | 2 | – | –
4 | CC(C)C[C@@H](N)C(=O)N[C@H]1C(=O)N[C@@H](CC(N)=O)C(=O)N[C@H]2C(=O)N[C@H]3C(=O)N[C@H](C(=O)N[C@H](C(=O)NCCc4ccc(-c5ccc(CNC(=N)N)cc5)cc4)c4cc(O)cc(O)c4-c4cc3ccc4O)[C@H](O)c3ccc(c(Cl)c3)Oc3cc2cc(c3O[C@@H]2O[C@H](CO)[C@@H](O)[C@H](O)[C@H]2O[C@H]2C[C@](C)(N)[C@H](O)[C@H](C)O2)Oc2ccc(cc2Cl)[C@H]1O | 2 | > 128 | 2 | 2 | > 128 | 0.5 (≈ 0.297 µM) | 4 (≈ 2.37 µM) | 128 (≈ 75.9 µM) | 2 | 2 | 8 (≈ 4.75 µM) | 4 (≈ 2.37 µM) | 2 | 0.125 (≈ 0.0742 µM) | 2 | 4 (≈ 2.37 µM) | 2 | – | –
5 | CN[C@H](CC(C)C)C(=O)N[C@H]1C(=O)N[C@@H](CC(N)=O)C(=O)N[C@H]2C(=O)N[C@H]3C(=O)N[C@H](C(=O)N[C@H](C(=O)NCCCCCCCCN)c4cc(O)cc(O)c4-c4cc3ccc4O)[C@H](O)c3ccc(c(Cl)c3)Oc3cc2cc(c3O[C@@H]2O[C@H](CO)[C@@H](O)[C@H](O)[C@H]2O[C@H]2C[C@](C)(N)[C@H](O)[C@H](C)O2)Oc2ccc(cc2Cl)[C@H]1O | – | > 128 | – | – | 128 (≈ 81.2 µM) | 2 (≈ 1.27 µM) | 64 (≈ 40.6 µM) | 128 (≈ 81.2 µM) | – | – | 64 (≈ 40.6 µM) | 64 (≈ 40.6 µM) | – | 1 (≈ 0.635 µM) | – | 16 (≈ 10.2 µM) | – | Non-Toxic | Non-Toxic
